Assay [1] concerns NF-kB reporter in Jurkat cells. Description: NF-kB reporter assay in Jurkat cells stimulated with aCD3/aCD28/PMA. The assay is classed as cell-based. The settings on record: Homo sapiens, read-out: NF-kB Reporter Assay IC50. In a few lines:
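Luminescence (One-Glo) from the NF-kB reporter yielded IC50 values. Stimulation lasted 4 h at 37° C with aCD3, aCD28 and PMA (final 5, 5 and 0.03 […]), after 1 h compound pre-exposure of 25,000 Jurkat cells per well in serum-free RPMI.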

In a further assay the target is Avi-tagged FL MALT-1 (Homo sapiens (Human), UniProt Q9UDY8). Put plainly: MALT-1 Fluorogenic Peptide Cleavage Assay (MALT1 inhibition assay). The assay is classed as biochemical. Conditions: Ac-LRSR-AMC peptide substrate, 30 min pre-incubation, 90 min reaction at room temperature. In a few lines: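 Cleavage of Ac-LRSR-AMC, read as fluorescence at 342/441 nm after 90 min at room temperature, with substrate working stocks of 50 μM (Km) or 280 μM (10×Km). Enzyme, Avi-tagged full-length MALT-1 (40 nM stock), was first pre-incubated 30 min with compound in citrate/HEPES pH 6.89 buffer with TCEP, EDTA, CHAPS and 2% DMSO; IC50 fitted from normalised % inhibition.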
Chain of Avi-tagged FL MALT-1 (Q9UDY8 whole entry): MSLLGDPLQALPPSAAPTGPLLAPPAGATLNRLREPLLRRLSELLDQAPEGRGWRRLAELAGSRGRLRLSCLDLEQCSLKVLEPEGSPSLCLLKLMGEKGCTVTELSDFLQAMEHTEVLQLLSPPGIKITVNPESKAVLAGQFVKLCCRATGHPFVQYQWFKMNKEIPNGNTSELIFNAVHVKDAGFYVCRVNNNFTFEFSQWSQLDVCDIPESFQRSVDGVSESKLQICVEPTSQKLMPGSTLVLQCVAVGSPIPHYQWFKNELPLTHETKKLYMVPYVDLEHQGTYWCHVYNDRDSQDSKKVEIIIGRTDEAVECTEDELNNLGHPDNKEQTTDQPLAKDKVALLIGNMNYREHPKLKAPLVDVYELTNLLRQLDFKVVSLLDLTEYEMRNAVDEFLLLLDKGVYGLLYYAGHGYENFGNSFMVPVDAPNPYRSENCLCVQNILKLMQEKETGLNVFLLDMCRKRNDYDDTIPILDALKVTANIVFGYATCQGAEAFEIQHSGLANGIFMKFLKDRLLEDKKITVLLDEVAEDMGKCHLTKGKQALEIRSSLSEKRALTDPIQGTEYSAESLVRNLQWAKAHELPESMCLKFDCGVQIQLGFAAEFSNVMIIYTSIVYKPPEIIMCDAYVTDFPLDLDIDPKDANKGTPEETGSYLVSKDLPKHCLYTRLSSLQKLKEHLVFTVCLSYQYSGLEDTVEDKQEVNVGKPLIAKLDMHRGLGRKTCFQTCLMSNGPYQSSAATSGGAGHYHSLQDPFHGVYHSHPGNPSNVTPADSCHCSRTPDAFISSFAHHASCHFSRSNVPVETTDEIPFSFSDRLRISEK

[2] abbreviates: Jurkat cells, 1 hr compound pre-incubation, aCD3/aCD28/PMA stimulation 4 hr, One-Glo readout.

Each structure is given as a SMILES string. Like-named read-outs stand apart in the source and are kept apart here.

On to `Cc1n[nH]c2cccc(NS(=O)(=O)c3cnn(-c4cc(C5CC5)ccn4)c3)c12` [Compound I-89, 1-(4-Cyclopropylpyridin-2-yl)-N-(3-Methyl-1H-Indazol-4-yl)-1H-Pyrazole-4-Sulfonamide], for which the IC50 in assay [1] (setting [2]) was under 400 nM; against Avi-tagged FL MALT-1, over 2500 nM.

Turning to `COc1cnc(C(F)(F)F)cc1-n1cc(S(=O)(=O)Nc2c(OC)ccc3cnn(C)c23)cn1` [Compound I-90, N-(6-Methoxy-1-Methyl-1H-Indazol-7-yl)-1-(5-Methoxy-2-(Trifluoromethyl)Pyridin-4-yl)-1H-Pyrazole-4-Sulfonamide], the IC50 in assay [1] (setting [2]) is under 400 nM; on Avi-tagged FL MALT-1, at most 400 nM.

Consider `COc1ccc2cnn(C)c2c1NS(=O)(=O)c1cnn(-c2cc(C(C)(F)F)ccn2)c1` [Compound I-91, 1-(4-(1,1-Difluoroethyl)Pyridin-2-yl)-N-(6-Methoxy-1-Methyl-1H-Indazol-7-yl)-1H-Pyrazole-4-Sulfonamide], for which the IC50 was under 400 nM in assay [1] (setting [2]) and at most 400 nM against Avi-tagged FL MALT-1.

Take `COC1(c2ccnc(-n3cc(S(=O)(=O)Nc4cccc5cnn(C)c45)cn3)c2)CCC1` [Compound I-93, 1-(4-(1-Methoxycyclobutyl)Pyridin-2-yl)-N-(1-Methyl-1H-Indazol-7-yl)-1H-Pyrazole-4-Sulfonamide]: the IC50 in assay [1] (setting [2]) is under 400 nM; against Avi-tagged FL MALT-1, over 2500 nM.

On to `Cn1ncc2cccc(NS(=O)(=O)c3cnn(-c4cc(C5(F)CCC5)ccn4)c3)c21` [Compound I-94, 1-(4-(1-fluorocyclobutyl)pyridin-2-yl)-N-(1-methyl-1H-indazol-7-yl)-1H-pyrazole-4-sulfonamide], for which the IC50 in assay [1] (setting [2]) was under 400 nM; at Avi-tagged FL MALT-1, over 2500 nM.

On to `Cc1ncn2cccc(NS(=O)(=O)c3cnn(-c4cc(C(F)(F)F)ccn4)c3)c12` [Compound I-95, N-(1-methylimidazo[1,5-a]pyridin-8-yl)-1-(4-(trifluoromethyl)pyridin-2-yl)-1H-pyrazole-4-sulfonamide], for which the IC50 in assay [1] (setting [2]) is under 400 nM; at Avi-tagged FL MALT-1, over 2500 nM.

Regarding `[2H]C([2H])([2H])Oc1ccc2cnn(C)c2c1NS(=O)(=O)c1cnn(-c2cc(C3CC3)ccn2)c1` [Compound I-96, 1-(4-cyclopropylpyridin-2-yl)-N-(6-(methoxy-d3)-1-methyl-1H-indazol-7-yl)-1H-pyrazole-4-sulfonamide], the IC50 in assay [1] (setting [2]) was under 400 nM; at Avi-tagged FL MALT-1, at most 400 nM.

Take `[2H]C([2H])([2H])n1ncc2ccc(OC)c(NS(=O)(=O)c3cnn(-c4cc(C5CC5)ccn4)c3)c21` [Compound I-97, 1-(4-Cyclopropylpyridin-2-yl)-N-(6-Methoxy-1-(Methyl-D3)-1H-Indazol-7-yl)-1H-Pyrazole-4-Sulfonamide]: the figures for the IC50 (in assay [1] (setting [2]); against Avi-tagged FL MALT-1) were under 400 nM and at most 400 nM, respectively.

Regarding `COCCn1ncc2cccc(NS(=O)(=O)c3cnn(-c4cc(C(F)(F)F)ccn4)c3)c21` [Compound I-98, N-(1-(2-Methoxyethyl)-1H-Indazol-7-yl)-1-(4-(Trifluoromethyl)Pyridin-2-yl)-1H-Pyrazole-4-Sulfonamide], the IC50 (in assay [1] (setting [2]); on Avi-tagged FL MALT-1) was over 2500 nM in each case.

As to `COC1(c2ccnc(-n3cc(S(=O)(=O)Nc4cccc5cnn(C)c45)cn3)c2)CC(F)C1` (centres unmarked) [Compound I-99, 1-(4-(3-fluoro-1-methoxycyclobutyl)pyridin-2-yl)-N-(1-methyl-1H-indazol-7-yl)-1H-pyrazole-4-sulfonamide], the IC50 is under 400 nM in assay [1] (setting [2]) and over 2500 nM at Avi-tagged FL MALT-1.

As for `[2H]C([2H])([2H])n1nc(F)c2cccc(NS(=O)(=O)c3cnn(-c4cc(C(F)(F)F)ccn4)c3)c21` [Compound I-100], the IC50 in assay [1] (setting [2]) was under 400 nM; against Avi-tagged FL MALT-1, over 2500 nM.

`Cn1ncc2cccc(NS(=O)(=O)c3cnn(-c4cc(C5(O)COC5)ccn4)c3)c21` [Compound I-101, 1-(4-(3-hydroxyoxetan-3-yl)pyridin-2-yl)-N-(1-methyl-1H-indazol-7-yl)-1H-pyrazole-4-sulfonamide]: the IC50 was under 400 nM in assay [1] (setting [2]) and over 2500 nM on Avi-tagged FL MALT-1.

For `COCCn1ncc2cccc(NS(=O)(=O)c3cnn(-c4cc(C5CC5)ccn4)c3)c21` [Compound I-102, 1-(4-cyclopropylpyridin-2-yl)-N-(1-(2-methoxyethyl)-1H-indazol-7-yl)-1H-pyrazole-4-sulfonamide], the IC50 (in assay [1] (setting [2]); on Avi-tagged FL MALT-1) was over 2500 nM each time.

On to `Cn1ncc2cccc(NS(=O)(=O)c3cnn(-c4cc(N5CCOCC5)ccn4)c3)c21` [Compound I-103, N-(1-methyl-1H-indazol-7-yl)-1-(4-morpholinopyridin-2-yl)-1H-pyrazole-4-sulfonamide], for which the IC50 was under 400 nM in assay [1] (setting [2]) and over 2500 nM on Avi-tagged FL MALT-1.

On to `Cn1cc2ccc(F)c(NS(=O)(=O)c3cnn(-c4cc(C(F)(F)F)ccn4)c3)c2n1` [Compound I-104, N-(6-fluoro-2-methyl-2H-indazol-7-yl)-1-(4-(trifluoromethyl)pyridin-2-yl)-1H-pyrazole-4-sulfonamide], for which the IC50 (in assay [1] (setting [2]); on Avi-tagged FL MALT-1) was over 2500 nM throughout.

For the compound `Cn1nc2c(NS(=O)(=O)c3cnn(-c4cc(C(F)(F)F)ccn4)c3)cccc2c1Cl` [Compound I-105, N-(3-chloro-2-methyl-2H-indazol-7-yl)-1-(4-(trifluoromethyl)pyridin-2-yl)-1H-pyrazole-4-sulfonamide], the IC50 in assay [1] (setting [2]) was 1000 to 2500 nM; against Avi-tagged FL MALT-1, over 2500 nM.

On to `Cc1n[nH]c2cccc(NS(=O)(=O)c3cnn(-c4ccc(C5CC5)cn4)c3)c12` [Compound I-106, 1-(5-cyclopropylpyridin-2-yl)-N-(3-methyl-1H-indazol-4-yl)-1H-pyrazole-4-sulfonamide], for which the IC50 in assay [1] (setting [2]) was under 400 nM; against Avi-tagged FL MALT-1, over 2500 nM.

With `Cn1ncc2cccc(NS(=O)(=O)c3cnn(-c4cc(C5(O)CCC5)ccn4)c3)c21` [Compound I-107, 1-(4-(1-Hydroxycyclobutyl)Pyridin-2-yl)-N-(1-Methyl-1H-Indazol-7-yl)-1H-Pyrazole-4-Sulfonamide], the IC50 in assay [1] (Jurkat) was under 400 nM; at Avi-tagged FL MALT-1, over 2500 nM.

For `O=S(=O)(Nc1cccc2cnn(C(F)F)c12)c1cnn(-c2cc(C(F)F)ccn2)c1` [Compound I-108, N-[1-(difluoromethyl)indazol-7-yl]-1-[4-(difluoromethyl)pyridin-2-yl]pyrazole-4-sulfonamide], the IC50 (in assay [1] (setting [2]); at Avi-tagged FL MALT-1) was over 2500 nM in each case.

`Cn1ncc2cccc(NS(=O)(=O)c3cnn(-c4cc(C5=CCOC5)ccn4)c3)c21` [Compound I-109, 1-(4-(2,5-Dihydrofuran-3-yl)Pyridin-2-yl)-N-(1-Methyl-1H-Indazol-7-yl)-1H-Pyrazole-4-Sulfonamide]: the IC50 in assay [1] (setting [2]) is under 400 nM; against Avi-tagged FL MALT-1, over 2500 nM.

For `O=S(=O)(Nc1cccc2cnn(C(F)F)c12)c1cnn(-c2cc(Cl)ccn2)c1` [Compound I-110, 1-(4-chloropyridin-2-yl)-N-[1-(difluoromethyl)indazol-7-yl]pyrazole-4-sulfonamide], the IC50 (in assay [1] (setting [2]); at Avi-tagged FL MALT-1) was over 2500 nM each time.

Regarding `Cn1nc(Cl)c2cccc(NS(=O)(=O)c3cnn(-c4cc(C(F)(F)F)ccn4)c3)c21` [Compound I-111, N-(3-chloro-1-methyl-1H-indazol-7-yl)-1-(4-(trifluoromethyl)pyridin-2-yl)-1H-pyrazole-4-sulfonamide], the figures for the IC50 (in assay [1] (setting [2]); against Avi-tagged FL MALT-1) were under 400 nM and over 2500 nM, respectively.

As for `Cn1ncc2cccc(NS(=O)(=O)c3cnn(-c4cc(C5(F)CC(F)C5)ccn4)c3)c21` (centres unmarked) [Compound I-112, 1-(4-(1,3-difluorocyclobutyl)pyridin-2-yl)-N-(1-methyl-1H-indazol-7-yl)-1H-pyrazole-4-sulfonamide], the IC50 in assay [1] (setting [2]) was under 400 nM; against Avi-tagged FL MALT-1 it was over 2500 nM.

As to `Cn1ncc2cccc(NS(=O)(=O)c3cnn(-c4cc(C(C)(C)F)ccn4)c3)c21` [Compound I-113, 1-(4-(2-fluoropropan-2-yl)pyridin-2-yl)-N-(1-methyl-1H-indazol-7-yl)-1H-pyrazole-4-sulfonamide], the IC50 in assay [1] (setting [2]) was under 400 nM; on Avi-tagged FL MALT-1, over 2500 nM.

For `COC(C)(C)c1ccnc(-n2cc(S(=O)(=O)Nc3cccc4cnn(C)c34)cn2)c1` [Compound I-114, 1-(4-(2-Methoxypropan-2-yl)Pyridin-2-yl)-N-(1-Methyl-1H-Indazol-7-yl)-1H-Pyrazole-4-Sulfonamide], the IC50 in assay [1] (setting [2]) was under 400 nM; against Avi-tagged FL MALT-1 it was over 2500 nM.

For the compound `COc1ccc2cnn(C)c2c1NS(=O)(=O)c1cnn(-c2cc(C(C)(C)C)ccn2)c1` [Compound I-115, 1-(4-(tert-butyl)pyridin-2-yl)-N-(6-methoxy-1-methyl-1H-indazol-7-yl)-1H-pyrazole-4-sulfonamide], the results for the IC50 (in assay [1] (setting [2]); against Avi-tagged FL MALT-1) were under 400 nM and at most 400 nM, respectively.

For `COC(C)c1ccnc(-n2cc(S(=O)(=O)Nc3cccc4cnn(C)c34)cn2)c1` (centres unmarked) [Compound I-116, 1-(4-(1-methoxyethyl)pyridin-2-yl)-N-(1-methyl-1H-indazol-7-yl)-1H-pyrazole-4-sulfonamide], the IC50 was under 400 nM in assay [1] (setting [2]) and over 2500 nM against Avi-tagged FL MALT-1.

Take `Cc1cnc(-n2cc(S(=O)(=O)Nc3cccc4cnn(C)c34)cn2)cc1C(F)(F)F` [Compound I-117, N-(1-methyl-1H-indazol-7-yl)-1-(5-methyl-4-(trifluoromethyl)pyridin-2-yl)-1H-pyrazole-4-sulfonamide]: the values for the IC50 (in assay [1] (setting [2]); at Avi-tagged FL MALT-1) were under 400 nM and 1000 to 2500 nM, respectively.

One may read the IC50 as the concentration needed to halve the response being measured.

Values taken from patent publication US20240150321A1, “PYRAZOLYLSULFONAMIDE COMPOUNDS AND THEIR USE IN THERAPY” (HOTSPOT THERAPEUTICS, INC., priority 2022, published 2024).
